Results on three compounds are retold here after ChEMBL document CHEMBL5653631, “A Potent and Selective ULK1 Inhibitor Suppresses Autophagy and Sensitizes Cancer Cells to Nutrient Stress” (iScience, 2018).

As usually defined, the inhibition is the drop in the measured response relative to a control, in per cent.

Experiment [1] concerns the target Tyrosine-protein kinase BTK (Homo sapiens) (UniProt Q06187). The experiment is described as follows: Inhibition of human recombinant BTK at 40 nM related to control ULK1.
The target in experiment [2] is T1, Tribbles homolog 2 (Homo sapiens) (UniProt Q92519).
T1 sequence (whole entry): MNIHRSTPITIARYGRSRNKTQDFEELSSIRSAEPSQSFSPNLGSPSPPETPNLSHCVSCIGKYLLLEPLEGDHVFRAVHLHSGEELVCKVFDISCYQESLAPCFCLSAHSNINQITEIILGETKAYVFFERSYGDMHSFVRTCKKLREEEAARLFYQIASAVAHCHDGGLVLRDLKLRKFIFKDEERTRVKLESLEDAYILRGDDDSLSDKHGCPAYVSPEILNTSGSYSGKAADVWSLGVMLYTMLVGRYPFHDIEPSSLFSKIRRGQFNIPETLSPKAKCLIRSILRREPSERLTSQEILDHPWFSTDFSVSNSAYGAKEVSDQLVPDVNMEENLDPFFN
The experiment in a line: Inhibition of human recombinant Trb2 at 40 nM in presence of ATP by radiometric assay relative to control.

In experiment [3] the target is Calcium/calmodulin-dependent protein kinase kinase 2 (Homo sapiens) (UniProt Q96RR4). The experiment in a line: Inhibition of human recombinant CaMKK2 at 40 nM related to control ULK1.
Experiment [4] deals with T2, Serine/threonine-protein kinase tousled-like 1 (Homo sapiens) (UniProt Q9UKI8).
T2 sequence (whole entry): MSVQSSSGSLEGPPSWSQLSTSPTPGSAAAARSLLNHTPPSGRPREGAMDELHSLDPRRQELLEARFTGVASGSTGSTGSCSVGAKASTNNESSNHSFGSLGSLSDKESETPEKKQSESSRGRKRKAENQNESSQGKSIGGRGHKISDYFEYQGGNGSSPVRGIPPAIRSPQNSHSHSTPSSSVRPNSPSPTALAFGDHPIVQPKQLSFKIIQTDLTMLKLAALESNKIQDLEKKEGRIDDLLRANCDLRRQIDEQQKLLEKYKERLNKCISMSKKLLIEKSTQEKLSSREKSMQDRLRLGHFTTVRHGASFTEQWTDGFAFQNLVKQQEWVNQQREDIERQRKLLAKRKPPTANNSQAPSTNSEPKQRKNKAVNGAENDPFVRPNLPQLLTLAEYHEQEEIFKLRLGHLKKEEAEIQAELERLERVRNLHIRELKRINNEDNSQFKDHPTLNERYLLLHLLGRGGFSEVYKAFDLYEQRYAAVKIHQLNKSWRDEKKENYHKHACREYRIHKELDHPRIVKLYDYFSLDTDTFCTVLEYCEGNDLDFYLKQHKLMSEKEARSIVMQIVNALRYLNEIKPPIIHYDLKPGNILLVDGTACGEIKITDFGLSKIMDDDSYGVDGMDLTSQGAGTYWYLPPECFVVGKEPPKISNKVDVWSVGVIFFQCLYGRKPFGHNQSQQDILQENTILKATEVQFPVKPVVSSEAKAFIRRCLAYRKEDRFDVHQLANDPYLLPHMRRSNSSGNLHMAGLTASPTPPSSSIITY
The experiment in a line: Inhibition of human recombinant TLK1 at 40 nM in presence of ATP by radiometric assay relative to control.

Experiment [5] has as its target T3, Dual specificity protein kinase TTK (Homo sapiens) (UniProt P33981).
T3 sequence (whole entry): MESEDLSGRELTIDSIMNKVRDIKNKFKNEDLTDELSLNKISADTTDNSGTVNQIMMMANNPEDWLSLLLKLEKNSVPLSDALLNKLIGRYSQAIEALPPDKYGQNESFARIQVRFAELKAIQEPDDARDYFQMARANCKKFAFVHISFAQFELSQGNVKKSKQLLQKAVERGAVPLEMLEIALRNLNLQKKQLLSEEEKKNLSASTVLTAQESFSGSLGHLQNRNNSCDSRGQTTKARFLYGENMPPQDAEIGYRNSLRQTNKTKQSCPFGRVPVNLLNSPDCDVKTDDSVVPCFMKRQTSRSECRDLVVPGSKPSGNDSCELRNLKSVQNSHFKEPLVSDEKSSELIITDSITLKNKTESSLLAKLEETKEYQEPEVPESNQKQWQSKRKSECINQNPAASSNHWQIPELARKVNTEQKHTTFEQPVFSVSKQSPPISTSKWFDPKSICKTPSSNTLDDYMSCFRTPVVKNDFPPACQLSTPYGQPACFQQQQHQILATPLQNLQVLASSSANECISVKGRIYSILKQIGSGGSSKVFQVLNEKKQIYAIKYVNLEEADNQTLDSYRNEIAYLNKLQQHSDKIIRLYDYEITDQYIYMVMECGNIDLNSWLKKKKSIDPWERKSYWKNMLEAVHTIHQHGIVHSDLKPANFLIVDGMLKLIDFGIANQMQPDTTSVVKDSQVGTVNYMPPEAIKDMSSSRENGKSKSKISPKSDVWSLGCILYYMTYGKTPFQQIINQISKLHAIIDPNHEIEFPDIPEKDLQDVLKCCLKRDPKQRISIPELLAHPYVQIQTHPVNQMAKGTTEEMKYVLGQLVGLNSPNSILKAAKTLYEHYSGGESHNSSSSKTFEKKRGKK
The experiment is described as follows: Inhibition of human recombinant TTK at 40 nM in presence of ATP by radiometric assay relative to control.

Experiment [6] has as its target Vascular endothelial growth factor receptor 3 (Homo sapiens) (UniProt P35916). The experiment is described as follows: Inhibition of human recombinant FLT4 at 40 nM in presence of ATP by radiometric assay relative to control.
The target in experiment [7] is Cyclin-dependent kinase 5 (Homo sapiens) (UniProt Q00535). The experiment is described as follows: Inhibition of human recombinant CDK5 at 40 nM related to control ULK1.
Experiment [8] has as its target PAS domain-containing serine/threonine-protein kinase (Homo sapiens) (UniProt Q96RG2). The experiment in a line: Inhibition of human recombinant PASK at 40 nM in presence of ATP by radiometric assay relative to control.
Experiment [9] addresses Serine/threonine-protein kinase SBK1 (Homo sapiens) (UniProt Q52WX2). The experiment is described as follows: Inhibition of human recombinant SBK1 at 500 nM in presence of ATP by radiometric assay relative to control.
Experiment [10] deals with Serine/threonine-protein kinase SIK2 (Homo sapiens) (UniProt Q9H0K1). The experiment is described as follows: Inhibition of human recombinant QIK at 15 nM in presence of ATP by radiometric assay relative to control.
Experiment [11] has as its target Calcium/calmodulin-dependent protein kinase type 1D (Homo sapiens) (UniProt Q8IU85). The experiment in a line: Inhibition of human recombinant CaMK1d at 15 nM related to control ULK1.
Experiment [12] deals with Transcription initiation factor TFIID subunit 1-like (Homo sapiens) (UniProt Q8IZX4). The experiment in a line: Inhibition of human recombinant TAF1L at 15 nM in presence of ATP by radiometric assay relative to control.
For experiment [13], the target named is Calcium/calmodulin-dependent protein kinase kinase 2 (Homo sapiens) (UniProt Q96RR4). The experiment in a line: Inhibition of human recombinant CaMKK2 at 15 nM related to control ULK1.
Experiment [14] concerns the target Serine/threonine-protein kinase 38-like (Homo sapiens) (UniProt Q9Y2H1). The experiment is described as follows: Inhibition of human recombinant NDR2 at 15 nM related to control ULK1.
Experiment [15] deals with Macrophage colony-stimulating factor 1 receptor (Homo sapiens) (UniProt P07333). The experiment is described as follows: Inhibition of human recombinant FMS at 15 nM in presence of ATP by radiometric assay relative to control.
Chain of Macrophage colony-stimulating factor 1 receptor (Homo sapiens) (P07333 whole entry): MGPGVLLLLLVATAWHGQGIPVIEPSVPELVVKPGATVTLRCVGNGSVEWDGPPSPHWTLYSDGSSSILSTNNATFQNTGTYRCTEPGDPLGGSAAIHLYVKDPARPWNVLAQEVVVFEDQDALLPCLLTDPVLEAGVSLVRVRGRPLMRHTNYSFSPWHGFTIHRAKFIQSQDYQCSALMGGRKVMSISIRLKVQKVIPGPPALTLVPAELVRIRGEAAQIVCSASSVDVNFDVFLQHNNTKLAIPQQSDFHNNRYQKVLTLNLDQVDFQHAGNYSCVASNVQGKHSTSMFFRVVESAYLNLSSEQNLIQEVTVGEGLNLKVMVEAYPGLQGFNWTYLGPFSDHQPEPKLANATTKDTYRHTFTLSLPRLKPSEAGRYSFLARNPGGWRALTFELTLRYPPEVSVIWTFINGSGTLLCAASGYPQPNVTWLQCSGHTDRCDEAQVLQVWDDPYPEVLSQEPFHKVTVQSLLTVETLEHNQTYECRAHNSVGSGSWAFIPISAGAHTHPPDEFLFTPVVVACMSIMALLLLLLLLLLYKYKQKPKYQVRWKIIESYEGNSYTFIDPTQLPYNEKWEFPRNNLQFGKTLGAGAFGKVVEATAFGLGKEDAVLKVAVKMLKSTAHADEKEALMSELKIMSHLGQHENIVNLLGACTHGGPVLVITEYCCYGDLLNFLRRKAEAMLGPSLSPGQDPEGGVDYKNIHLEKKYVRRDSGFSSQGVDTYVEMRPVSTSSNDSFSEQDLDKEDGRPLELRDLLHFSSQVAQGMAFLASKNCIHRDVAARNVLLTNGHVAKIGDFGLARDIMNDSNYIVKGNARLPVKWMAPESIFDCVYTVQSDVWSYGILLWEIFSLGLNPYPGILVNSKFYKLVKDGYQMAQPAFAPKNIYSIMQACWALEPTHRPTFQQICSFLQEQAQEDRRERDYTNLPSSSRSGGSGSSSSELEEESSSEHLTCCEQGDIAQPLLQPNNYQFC

Chain of Calcium/calmodulin-dependent protein kinase kinase 2 (Homo sapiens) (Q96RR4 2-588 limits assumed): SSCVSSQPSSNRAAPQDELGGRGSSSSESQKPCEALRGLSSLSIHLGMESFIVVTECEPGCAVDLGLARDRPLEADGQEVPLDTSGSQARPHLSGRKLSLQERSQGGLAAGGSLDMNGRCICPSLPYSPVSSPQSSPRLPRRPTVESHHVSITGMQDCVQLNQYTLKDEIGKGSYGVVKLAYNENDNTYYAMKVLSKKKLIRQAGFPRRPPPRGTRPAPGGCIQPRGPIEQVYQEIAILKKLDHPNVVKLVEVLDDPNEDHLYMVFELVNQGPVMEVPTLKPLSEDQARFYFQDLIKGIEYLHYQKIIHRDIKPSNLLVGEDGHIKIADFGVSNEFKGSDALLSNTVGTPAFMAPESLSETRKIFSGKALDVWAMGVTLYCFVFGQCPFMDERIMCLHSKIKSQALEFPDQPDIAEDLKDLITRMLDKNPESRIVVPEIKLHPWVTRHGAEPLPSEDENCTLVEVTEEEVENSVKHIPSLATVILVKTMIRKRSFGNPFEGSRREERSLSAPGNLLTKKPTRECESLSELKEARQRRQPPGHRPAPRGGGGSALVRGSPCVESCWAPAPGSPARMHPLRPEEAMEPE
Chain of Serine/threonine-protein kinase SBK1 (Homo sapiens) (Q52WX2 whole entry): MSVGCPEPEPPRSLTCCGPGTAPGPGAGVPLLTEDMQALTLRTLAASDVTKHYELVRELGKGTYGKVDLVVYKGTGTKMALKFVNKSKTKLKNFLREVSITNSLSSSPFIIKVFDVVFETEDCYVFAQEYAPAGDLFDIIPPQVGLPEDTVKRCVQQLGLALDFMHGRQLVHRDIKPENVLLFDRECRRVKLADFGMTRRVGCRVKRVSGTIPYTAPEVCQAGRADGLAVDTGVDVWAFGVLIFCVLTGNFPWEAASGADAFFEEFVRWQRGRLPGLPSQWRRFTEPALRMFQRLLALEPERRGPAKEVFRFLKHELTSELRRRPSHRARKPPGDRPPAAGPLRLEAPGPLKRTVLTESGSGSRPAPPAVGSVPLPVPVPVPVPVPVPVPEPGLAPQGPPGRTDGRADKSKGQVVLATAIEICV
Chain of Serine/threonine-protein kinase SIK2 (Homo sapiens) (Q9H0K1 whole entry, looked up): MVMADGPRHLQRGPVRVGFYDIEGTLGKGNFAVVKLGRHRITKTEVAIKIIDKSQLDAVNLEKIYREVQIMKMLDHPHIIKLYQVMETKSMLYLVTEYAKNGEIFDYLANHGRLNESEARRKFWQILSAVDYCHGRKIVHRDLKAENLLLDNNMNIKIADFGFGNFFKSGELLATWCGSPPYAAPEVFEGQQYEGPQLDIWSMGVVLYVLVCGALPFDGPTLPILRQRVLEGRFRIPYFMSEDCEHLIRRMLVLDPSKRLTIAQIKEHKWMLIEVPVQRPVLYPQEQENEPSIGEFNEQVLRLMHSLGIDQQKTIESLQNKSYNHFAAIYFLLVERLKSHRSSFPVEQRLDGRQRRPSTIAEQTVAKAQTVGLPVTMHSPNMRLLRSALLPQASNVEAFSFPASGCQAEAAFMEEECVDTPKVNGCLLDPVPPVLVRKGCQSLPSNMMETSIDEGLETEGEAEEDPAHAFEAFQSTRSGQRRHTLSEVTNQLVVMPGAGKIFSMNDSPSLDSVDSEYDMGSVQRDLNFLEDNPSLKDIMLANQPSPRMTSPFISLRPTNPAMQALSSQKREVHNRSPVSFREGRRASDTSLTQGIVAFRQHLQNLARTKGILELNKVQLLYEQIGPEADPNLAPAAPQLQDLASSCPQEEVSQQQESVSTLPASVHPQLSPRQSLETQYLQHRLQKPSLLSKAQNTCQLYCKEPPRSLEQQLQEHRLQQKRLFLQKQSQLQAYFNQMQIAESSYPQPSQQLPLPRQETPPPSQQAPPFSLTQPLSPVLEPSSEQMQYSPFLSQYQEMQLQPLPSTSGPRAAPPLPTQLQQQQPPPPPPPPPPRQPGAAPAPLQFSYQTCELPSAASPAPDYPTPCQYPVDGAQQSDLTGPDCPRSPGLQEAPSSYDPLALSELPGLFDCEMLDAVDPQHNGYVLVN
Chain of Tyrosine-protein kinase BTK (Homo sapiens) (Q06187 whole entry): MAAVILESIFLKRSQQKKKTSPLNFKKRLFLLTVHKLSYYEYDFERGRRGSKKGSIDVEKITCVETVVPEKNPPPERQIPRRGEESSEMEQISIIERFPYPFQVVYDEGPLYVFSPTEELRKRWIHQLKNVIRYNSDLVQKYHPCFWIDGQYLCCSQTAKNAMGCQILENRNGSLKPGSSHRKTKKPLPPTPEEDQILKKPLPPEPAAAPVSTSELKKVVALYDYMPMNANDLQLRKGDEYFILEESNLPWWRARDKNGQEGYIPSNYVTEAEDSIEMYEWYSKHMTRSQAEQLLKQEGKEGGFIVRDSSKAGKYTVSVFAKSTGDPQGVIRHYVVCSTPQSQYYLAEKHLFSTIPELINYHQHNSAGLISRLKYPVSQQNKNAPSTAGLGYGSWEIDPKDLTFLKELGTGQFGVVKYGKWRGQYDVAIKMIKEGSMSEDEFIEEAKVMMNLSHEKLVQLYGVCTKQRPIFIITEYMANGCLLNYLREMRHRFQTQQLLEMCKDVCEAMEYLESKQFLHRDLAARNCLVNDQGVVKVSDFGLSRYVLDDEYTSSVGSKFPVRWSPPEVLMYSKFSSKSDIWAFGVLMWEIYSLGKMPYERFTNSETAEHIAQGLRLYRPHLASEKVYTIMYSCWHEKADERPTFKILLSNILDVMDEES
Chain of Serine/threonine-protein kinase 38-like (Homo sapiens) (Q9Y2H1 2-464 limits assumed): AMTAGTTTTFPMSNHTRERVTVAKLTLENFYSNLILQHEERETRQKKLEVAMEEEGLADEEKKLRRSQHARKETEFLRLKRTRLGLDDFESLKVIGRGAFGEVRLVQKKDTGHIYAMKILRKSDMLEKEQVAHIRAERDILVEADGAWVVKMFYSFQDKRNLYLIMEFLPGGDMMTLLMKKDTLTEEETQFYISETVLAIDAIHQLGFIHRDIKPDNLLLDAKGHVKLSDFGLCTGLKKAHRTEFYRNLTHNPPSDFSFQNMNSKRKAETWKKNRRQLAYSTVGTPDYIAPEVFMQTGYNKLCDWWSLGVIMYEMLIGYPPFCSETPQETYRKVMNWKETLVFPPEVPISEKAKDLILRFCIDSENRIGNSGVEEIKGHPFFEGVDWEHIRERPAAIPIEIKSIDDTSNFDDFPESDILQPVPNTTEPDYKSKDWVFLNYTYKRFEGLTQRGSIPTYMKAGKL
Chain of Calcium/calmodulin-dependent protein kinase type 1D (Homo sapiens) (Q8IU85 whole entry, looked up): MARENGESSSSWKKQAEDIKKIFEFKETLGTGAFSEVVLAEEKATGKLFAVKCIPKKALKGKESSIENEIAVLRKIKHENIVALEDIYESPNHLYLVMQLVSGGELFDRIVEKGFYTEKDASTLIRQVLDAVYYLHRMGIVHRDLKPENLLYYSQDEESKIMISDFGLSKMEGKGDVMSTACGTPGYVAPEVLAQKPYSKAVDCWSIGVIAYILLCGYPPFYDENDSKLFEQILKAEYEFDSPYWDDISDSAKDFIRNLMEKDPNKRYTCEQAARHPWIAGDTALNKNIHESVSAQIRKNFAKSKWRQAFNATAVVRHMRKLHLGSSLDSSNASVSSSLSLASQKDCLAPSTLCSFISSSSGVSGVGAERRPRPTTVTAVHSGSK
Chain of Cyclin-dependent kinase 5 (Homo sapiens) (Q00535 whole entry, looked up, the tested form may be a part): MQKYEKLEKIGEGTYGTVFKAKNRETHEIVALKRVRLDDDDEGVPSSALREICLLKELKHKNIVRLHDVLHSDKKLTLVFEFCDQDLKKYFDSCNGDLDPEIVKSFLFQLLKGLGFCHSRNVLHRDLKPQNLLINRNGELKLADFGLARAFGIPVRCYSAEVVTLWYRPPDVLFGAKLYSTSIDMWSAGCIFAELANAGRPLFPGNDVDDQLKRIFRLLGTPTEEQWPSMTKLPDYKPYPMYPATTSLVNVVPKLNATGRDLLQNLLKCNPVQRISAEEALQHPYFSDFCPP

In the case of `O=C(N[C@@H](C1CC1)C(F)(F)F)c1cc(-c2cnn3cc(-c4ccc(F)cc4)cnc23)cs1`, the fold change (FC) in experiment [1] was found to be 0; in experiment [3], 0; in experiment [7], 0.64. In addition, the inhibition in [2] worked out at 34%; in [4], 0%; in experiment [5], 33%; in [6], 19%; in [8], 12%.
In the case of `CNC(=O)c1ccccc1Oc1nc(Nc2cc(OC)c(OC)c(OC)c2)ncc1Br`, the inhibition in experiment [9] was 50%.
For `CC(C)[C@H](NC(=O)c1cc(-c2cnn3cc(-c4ccc(OCCN5CCCCC5)cc4)cnc23)cs1)C(F)(F)F`, the inhibition in experiment [10] stood at 90%; in experiment [12], 43%; in [15], 17%. The fold change (FC) worked out at 0 in experiment [11], 0.01 in [13] and 0.02 in [14].
